# Results reported in patent US20250161338A1, “Compounds for Anti-aging Intervention” (AGENCY FOR SCIENCE, TECHNOLOGY AND RESEARCH, priority 2022, published 2025).
# Entries after “also recorded” stand apart in the source; their conditions may differ.
# How the values were obtained:
# Format in all cases: cell-based
# HEK293 cell line = test: CLS in human cells using crystal violet outgrowth assay; conditions: Day 4 culture (FIG. 18A); seven days of outgrowth
# Method: (§1) Human embryonic kidney 293 (HEK293) cells (ATCC, Manassas, Virginia, United States of America), lung epithelial (A549) cells (ATCC, Manassas, Virginia, United States of America) and fibroblast (IMR90) cells (ATCC, Manassas, Virginia, United States of America) were cultured in the standard D10 medium, consisting of high-glucose DMEM (HyClone, Cytiva, Marlborough, Massachusetts, USA) supplemented with 10% Fetal Bovine Serum (FBS) (Gibco™, ThermoFisher Scientific, Waltham, Massachusetts, USA) and 1% Penicillin Streptomycin Solution (Gibco™, ThermoFisher Scientific, Waltham, Massachusetts, USA). All cells were cultured in a humidified incubator with 5% CO2 at 37° C.
# 80,000 cells were seeded in a 96-well culture plate with or without compound treatment. On Day 4, Day 6, and Day 8 after seeding, floating dead cells were aspirated with exhausted D10 medium. Then, attached cells were gently washed with 1×PBS to remove D10 medium residue and treated with 0.2 mL of 0.25% trypsin. Cells were gently mixed by pipetting and a 2% aliquot (4 μL) was transferred to 6-well experiment plates with fresh D10 medium. […]
# In this approach, an outgrowth assay was used to determine the number of live cells in the 6-well experiment plate using crystal violet staining. […] These live cells were then stained with crystal violet dye and assessed qualitatively.
# HEK293 cells = test: CLS in human cells, propidium iodide fluorescence-based method (HEK293); conditions: sixth day after seeding
# Method: as §1
# (§2) The stock solution of rapamycin, hemin, 5-fluorouracil, atorvastatin, and methotrexate was prepared in DMSO, followed by serial dilution to form various concentrations used in the experiment. The final DMSO concentration was kept at 0.05% in all experiments. The stock solution of 2,5-anhydro-D-mannitol was prepared in D10 medium. The chemical library used in screening were tested at 1 μM concentrations. Controls used were the same as the solvent applied, DMSO or water.
# (§3) The assay was performed by preparing the cells with PI (2 μg/mL or 5 μg/mL) in a D10 medium. […] At different age time points, reading was taken with a Synergy MX microplate reader (BioTek, Winooski, Vermont, United States) at 535 nm excitation and 617 nm emission.
# IMR90 cells = test: CLS in human cells, propidium iodide fluorescence-based method (IMR90); conditions: sixth day after seeding
# Method: as §1, §2, §3
# [1] = tested on: wild-type Saccharomyces cerevisiae CEN.PK113-7D yeast strain; test: Yeast cell growth (OD600) in SD medium; conditions: 0 to 8 mM; 24, 48 and 72 hours
# Method: Yeast strain was recovered from frozen glycerol stock at 30° C. on YPD agar medium. Yeast was left to propagate in SD medium overnight at 30° C. with shaking at 220 revolutions per minute (rpm). Cells propagated overnight were diluted to a starting optical density at 600 nm (OD600) of approximately 0.2 in fresh SD medium to begin the chronological lifespan (CLS) experiments.
# CLS experiments were performed in 96-well plates with 200 μL yeast culture. Cellular inoculums were transferred into 96-well plates containing serially double-diluted concentrations (0 to 10 nM) of rapamycin. Cellular inoculum was transferred into 96-well plates containing serially double-diluted concentrations (0 to 8 mM) of 2,5-anhydro-D-mannitol, D-fructose, D-mannitol, D-maltose, and D-sorbitol in SD medium. Cells were incubated at 30° C., and the growth was measured at different time points. The growth time point 72 hours was considered as Day 1 for the CLS assay. Cell survival was quantified at various age time points by three different approaches: (i) PI fluorescence-based method, (ii) outgrowth in YPD liquid medium, and (iii) spotting assay (FIG. 1).
# Firstly, the effect of 2,5-AM on cell growth was determined. Yeast cells were incubated with varying concentrations of 2,5-AM in the SD medium. Cell growth was measured at different time points (24 hours, 48 hours, and 72 hours). […] Then, the survival of chronologically aged cells supplemented with different concentrations of 2,5-AM was measured using the PI fluorescence method. At each chronological age point, a 3 μL culture was transferred to a second 96-well plate containing 200 μL YPD medium. The 72-hour growth culture was considered Day 1 for the CLS analysis. The viability fraction was calculated, and a survival graph was plotted for different chronological age time points (FIG. 5). […] The survival of aged cells supplemented with 2,5-AM (4 mM and 8 mM) on Day 4 was approximately 80%. However, the survival of aged cells without 2,5-AM was approximately 50%. On Day 7, survival of 2,5-AM supplemented aged cells was approximately 75%. However, the survival of aged cells without 2,5-AM was reduced to less than 20%.
# Firstly, the effect of fructose, mannitol, maltose, and sorbitol on cell growth was tested. Yeast cells were incubated with various concentrations of fructose, mannitol, maltose, and sorbitol similar to 2,5-AM in the SD medium. […] Next, the survival of chronologically aged cells on day 1, day 7, day 14, and day 21 was measured. […] Aged cells supplemented with 2,5-AM (8 mM) survived (approximately 65%) on Day 21. However, the survival of aged cells without 2,5-AM supplementation was less than 10%.
smiles,measurement,setting,value
"OC[C@H]1O[C@H](CO)[C@@H](O)[C@@H]1O [2,5-AM, 2,5-anhydro-D-mannitol]","cellular lifespan (crystal violet, qualitative)",HEK293 cell line,able to increase cellular lifespan
same,more live cells compared to the untreated group,HEK293 cells; 2.5 mM,34.39%
same,more live cells compared to the untreated group,HEK293 cells; 5 mM,58.7%
same,more live cells compared to the untreated control,IMR90 cells; 2.5 mM,32.33%
same,more live cells compared to the untreated control,IMR90 cells; 5 mM,48.08%
same,cell growth,[1],reached the same saturation level after 24 hours; also recorded: did not affect cell growth
